From PMC12300381, “Synthesis, Biological Evaluation, and In Silico Characterization of Novel Imidazothiadiazole–Chalcone Hybrids as Multi-Target Enzyme Inhibitors” (Pharmaceuticals, 2025)

Legend:
Type in all cases: biochemical
Details in all cases: for IC50: Table 2
hCA I = hCA I (Homo sapiens, UniProt P00915); assay: hCA I esterase activity inhibition (Verpoorte method, p-nitrophenylacetate)
Protocol: (§1) The activities of the CA isoenzymes were measured in accordance with Verpoorte et al.’s previously described methodology. […] There was 400 µL of Tris–HCl buffer (pH 7.4), 360 µL of PNA (3.0 mM), 220 µL of H2O, and 20 µL of purified hCA isoenzyme in the reaction mixture. The identical cuvette was prepared without the enzyme in order to obtain a control measurement. The standard protein was bovine serum albumin.
(§2) To determine the IC50 values of the tested compounds, enzyme activity measurements were conducted at five to six different inhibitor concentrations. Percent activity values were calculated for each dose, taking into account the compounds’ molecular weights and dilution factors.
(§3) The IC50 study was completed prior to the Kᵢ determination. For the Kᵢ analysis, three selected concentrations of each inhibitor were used alongside a control (uninhibited) reaction.
(§4) Kᵢ values and standard deviations were calculated based on the type of inhibition (competitive or non-competitive), as inferred from the intersection pattern of the Lineweaver–Burk lines. These kinetic parameters allowed for further insight into the binding affinities and inhibition mechanisms of the compounds.

hCA II = hCA II (Homo sapiens, UniProt P00918); assay: hCA II esterase activity inhibition (Verpoorte method, p-nitrophenylacetate)
Protocol: as §1, §2
The IC50 study was completed prior to the Kᵢ determination. For the Kᵢ analysis, three selected concentrations of each inhibitor were used alongside a control (uninhibited) reaction. Enzyme activity data were converted to 1/V values and plotted against 1/[S] to generate Lineweaver–Burk plots.
as §4

BChE = target: T1, BChE (Equus caballus, UniProt P81908); assay: biochemical
T1 construct: BChE (C1057-1KU), extracted from equine serum; purchased Sigma-Aldrich Chemie, St. Louis, MO, USA C1057-1KU; host or cells: equine serum
Protocol: (§5) The previously published Ellman’s technique was used to measure the BChE and AChE activities. AChE (C2888-500UN) from Electrophorus electricus and BChE (C1057-1KU), extracted from equine serum, were both obtained from Sigma-Aldrich Chemie, St. Louis, MO, USA. The BChE/AChE activities were measured using 5,5′-dithiobis(2-nitrobenzoic acid) (DTNB) and butyrylthiocholine iodide (BChI)/[…] (AChI). In short, […] of the sample solutions with varying concentrations was dissolved in deionized water along with 100 µL of buffer (Tris–HCl, 1.0 M, pH 8.0). […] A fraction of DTNB (50 µL, 0.5 mM) was added following incubation. Finally, 50 µL of BChI/AChI (10/10 mM) was added to initiate the reaction. […] All enzymatic activity determination solutions, except AChE/BChE, were included in the negative control.
as §2, §3, §4

AChE = target: T2, AChE (Electrophorus electricus, UniProt O42275); assay: biochemical
T2 construct: purchased Sigma-Aldrich Chemie, St. Louis, MO, USA C2888-500UN
Protocol: as §5, §2, §3, §4

T1 sequence (P81908 whole entry): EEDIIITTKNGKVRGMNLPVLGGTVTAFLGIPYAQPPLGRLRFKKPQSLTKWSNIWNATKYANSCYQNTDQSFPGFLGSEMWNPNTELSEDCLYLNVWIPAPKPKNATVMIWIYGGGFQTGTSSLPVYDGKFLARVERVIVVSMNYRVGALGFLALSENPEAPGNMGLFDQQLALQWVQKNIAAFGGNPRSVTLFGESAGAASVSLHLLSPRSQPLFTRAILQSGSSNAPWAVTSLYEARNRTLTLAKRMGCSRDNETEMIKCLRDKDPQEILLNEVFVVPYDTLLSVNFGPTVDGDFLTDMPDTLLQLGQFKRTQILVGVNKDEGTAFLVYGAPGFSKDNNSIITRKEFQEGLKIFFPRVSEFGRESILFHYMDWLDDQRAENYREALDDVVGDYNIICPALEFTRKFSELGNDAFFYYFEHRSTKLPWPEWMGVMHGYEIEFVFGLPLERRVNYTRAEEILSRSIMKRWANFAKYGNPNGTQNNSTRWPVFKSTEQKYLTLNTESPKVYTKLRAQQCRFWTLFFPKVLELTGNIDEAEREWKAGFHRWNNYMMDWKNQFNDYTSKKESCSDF
Chain of hCA I (P00915 whole entry): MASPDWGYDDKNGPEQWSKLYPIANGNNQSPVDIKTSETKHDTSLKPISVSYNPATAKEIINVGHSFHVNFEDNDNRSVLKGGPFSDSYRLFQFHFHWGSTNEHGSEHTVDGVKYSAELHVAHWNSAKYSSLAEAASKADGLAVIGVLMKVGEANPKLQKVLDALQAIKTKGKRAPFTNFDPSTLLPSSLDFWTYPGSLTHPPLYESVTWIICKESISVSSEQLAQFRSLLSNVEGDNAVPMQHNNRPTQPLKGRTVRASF
T2 sequence (O42275 24-633): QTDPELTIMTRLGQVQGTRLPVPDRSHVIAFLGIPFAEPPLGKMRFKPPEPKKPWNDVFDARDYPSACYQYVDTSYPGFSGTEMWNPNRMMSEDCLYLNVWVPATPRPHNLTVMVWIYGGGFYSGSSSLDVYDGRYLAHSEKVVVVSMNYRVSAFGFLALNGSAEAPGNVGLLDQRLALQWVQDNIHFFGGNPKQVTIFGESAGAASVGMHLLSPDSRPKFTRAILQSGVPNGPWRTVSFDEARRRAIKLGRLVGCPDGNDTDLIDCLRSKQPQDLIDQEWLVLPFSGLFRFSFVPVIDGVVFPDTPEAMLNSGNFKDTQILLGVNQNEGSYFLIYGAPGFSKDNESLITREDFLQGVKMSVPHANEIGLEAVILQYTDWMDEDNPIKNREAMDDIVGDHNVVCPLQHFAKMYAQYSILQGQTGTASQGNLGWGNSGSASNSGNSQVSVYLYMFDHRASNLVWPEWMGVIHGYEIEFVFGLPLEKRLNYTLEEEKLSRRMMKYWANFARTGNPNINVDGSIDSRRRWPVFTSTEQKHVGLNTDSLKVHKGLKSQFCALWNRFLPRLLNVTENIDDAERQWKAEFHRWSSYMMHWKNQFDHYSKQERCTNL

Row | Structure (SMILES) | Ki (hCA I; Lineweaver-Burk plots) [nM] | IC50 (hCA I) [nM] | Ki (hCA II; Lineweaver-Burk plots) [nM] | IC50 (hCA II) [nM] | Ki (BChE; Lineweaver-Burk plots) [nM] | inhibition type, BChE (BChE; Lineweaver-Burk plots) | IC50 (BChE) [nM] | Ki (AChE; Lineweaver-Burk plots) [nM] | inhibition type, AChE (AChE; Lineweaver-Burk plots) | IC50 (AChE) [nM] | inhibition type, hCA II (hCA II; Lineweaver-Burk plots) | inhibition type, hCA I (hCA I; Lineweaver-Burk plots)
1 | COc1ccc(C(=O)/C=C/c2c(-c3ccccc3)nc3sc(SCc4ccccc4)nn23)cc1 [8a, (E)-3-(2-(Benzylthio)-6-phenylimidazo[2,1-b][1,3,4]thiadiazol-5-yl)-1-(4-methoxyphenyl)prop-2-en-1-one] | 81.2 ± 4.36 | 73 | 49.3 ± 5.03 | 41.1 | 1.01 ± 0.08 | competitive | 1.37 | 3.86 ± 0.2 | competitive | 4.36 |  | 
2 | O=C(/C=C/c1c(-c2ccccc2)nc2sc(SCc3ccccc3)nn12)c1ccc(Cl)cc1 [8b, (E)-3-(2-(Benzylthio)-6-phenylimidazo[2,1-b][1,3,4]thiadiazol-5-yl)-1-(4-chlorophenyl)prop-2-en-1-one] | 78 ± 5.48 | 64.4 | 52.5 ± 6.24 | 49.3 | 1.7 ± 0.1 |  | 1.95 | 6.01 ± 0.35 |  | 6.77 |  | 
3 | COc1ccc(C(=O)/C=C/c2c(-c3ccccc3)nc3sc(SCc4ccc(F)cc4)nn23)cc1 [8c, (E)-3-(2-((4-Fluorobenzyl)thio)-6-phenylimidazo[2,1-b][1,3,4]thiadiazol-5-yl)-1-(4-methoxyphenyl)prop-2-en-1-one] |  |  | 36.1 ± 5.36 | 30.2 | 1.56 ± 0.06 |  | 2.03 | 11.3 ± 1.02 |  | 13 | non-competitive | 
4 | O=C(/C=C/c1c(-c2ccccc2)nc2sc(SCc3ccc(F)cc3)nn12)c1ccc(Cl)cc1 [8d, (E)-1-(4-Chlorophenyl)-3-(2-((4-fluorobenzyl)thio)-6-phenylimidazo[2,1-b][1,3,4]thiadiazol-5-yl)prop-2-en-1-one] | 45.1 ± 3.91 | 39.1 | 39.6 ± 4.91 | 34.1 | 1.78 ± 0.12 |  | 1.98 | 7.98 ± 0.6 |  | 9.3 |  | non-competitive
